Starred links: 1 amine or outer side, 2 acyl side, 3 side chain; linkers in the order of their positions; H or OH if unused. Positions of bridges follow the written chain, without caps; N, C: chain ends. Non-standard residues stand in square brackets, D forms with d. Residues, ends and D or L forms follow the SMILES beside them. *: point of attachment. hPhe(3-Cl-4-CF3) = N[C@@H](CCc1ccc(C(F)(F)F)c(Cl)c1)C(=O)O; X2 = CN([C@@H](CC(=O)[*:2])C(=O)n1cccc1)[*:1]; NMePhe(4-Cl) = CN[C@@H](Cc1ccc(Cl)cc1)C(=O)O; X1 = O=C([C@H](CC(=O)[*:2])N[*:1])n1cccc1; NMeAla(cPent) = CN[C@@H](CC1CCCC1)C(=O)O; Phe(3-Cl) = N[C@@H](Cc1cccc(Cl)c1)C(=O)O; NMeGly(cBu) = CN[C@H](C(=O)O)C1CCC1; NMeCha = CN[C@@H](CC1CCCCC1)C(=O)O; NMeGly(cPr) = CN[C@H](C(=O)O)C1CC1; NMeCba = CN[C@@H](CC1CCC1)C(=O)O; NMeChg = CN[C@H](C(=O)O)C1CCCCC1; NMeF = CN[C@@H](Cc1ccccc1)C(=O)O; NMeI = CC[C@H](C)[C@H](NC)C(=O)O; NMeD = CN[C@@H](CC(=O)O)C(=O)O; NMeL = CN[C@@H](CC(C)C)C(=O)O; NMeNle = CCCC[C@H](NC)C(=O)O; NMeNva = CCC[C@H](NC)C(=O)O; NMeV = CN[C@H](C(=O)O)C(C)C; NMeA = CN[C@@H](C)C(=O)O; Piperidide = C1CCN(*)CC1; Pyrrolidide = C1CCN(*)C1; Ac5c = NC1(C(=O)O)CCCC1; Aze = O=C(O)[C@@H]1CCN1; Sar = CNCC(=O)O
Key:
[1] = Apparent permeability in human Caco-2 cells incubated for 180 mins by LC-MS/MS method; format: ADME, cell-based
[2] = test system: ASPC1; test: Cytotoxicity against human AsPC1 cells assessed as reduction in cell viability incubated for 7 days by CellTiterGlo Luminescent Cell Viability Assay; format: functional, cell-based; settings: ASPC1, 168 h
[3] = Inhibition of biotin-tagged KRAS G12D mutant (unknown origin) to recombinant His-tagged SOS1 (unknown origin) protein-protein interaction incubated for 120 mins by AlphaLISA method; parameters: species or system Homo sapiens

SMILES	Papp at 3 h [1] [×10⁻⁶ cm/s]	IC50 [2] [nM]	IC50 [3] [nM]
CC[C@H](C)[C@@H]1NC(=O)[C@H](C2CC2)N(C)C(=O)C[C@@H](C(=O)N2CCCCC2)N(C)C(=O)[C@H](C(C)C)N(C)C(=O)C2(CCCC2)NC(=O)[C@@H]2CCCN2C(=O)[C@H](CCc2ccc(C(F)(F)F)c(Cl)c2)NC(=O)CN(C)C(=O)[C@H](CC2CCCCC2)N(C)C(=O)CN(C)C(=O)CN(C)C1=O ([NMeGly(cPr)]I[Sar][Sar][NMeCha][Sar][hPhe(3-Cl-4-CF3)]P[Ac5c][NMeV][NMeD]-Piperidide; lactam N-11)	0.46	720	8.5
CC[C@H](C)[C@@H]1NC(=O)[C@H](C)N(C)C(=O)C[C@@H](C(=O)n2cccc2)N(C)C(=O)[C@H](C(C)C)N(C)C(=O)[C@H](Cc2ccccc2)N(C)C(=O)[C@H](Cc2ccccc2)NC(=O)[C@H](Cc2cccc(Cl)c2)NC(=O)CN(C)C(=O)[C@H](Cc2ccc(Cl)cc2)N(C)C(=O)CN(C)C(=O)CN(C)C1=O (cyclo(F[NMeF][NMeV][X2][NMeA]I[Sar][Sar][NMePhe(4-Cl)][Sar][Phe(3-Cl)]))	0.11		70
CC[C@H](C)[C@@H]1NC(=O)[C@H](C)N(C)C(=O)C[C@@H](C(=O)N2CCCC2)NC(=O)[C@H](C(C)C)N(C)C(=O)[C@H](Cc2ccccc2)N(C)C(=O)[C@H](Cc2c[nH]c3ccccc23)NC(=O)[C@H](Cc2cccc(Cl)c2)NC(=O)CN(C)C(=O)[C@H](Cc2ccc(Cl)cc2)N(C)C(=O)CN(C)C(=O)CN(C)C1=O ([NMeA]I[Sar][Sar][NMePhe(4-Cl)][Sar][Phe(3-Cl)]W[NMeF][NMeV]D-Pyrrolidide; lactam N-11)			54
CC[C@H](C)[C@@H]1NC(=O)[C@H](CC(C)C)N(C)C(=O)C[C@@H](C(=O)N2CCCCC2)N(C)C(=O)[C@H](C2CCCCC2)N(C)C(=O)C2(CCCC2)NC(=O)[C@@H]2CCCN2C(=O)[C@H](CCc2ccc(C(F)(F)F)c(Cl)c2)NC(=O)CN(C)C(=O)[C@H](CC2CCCCC2)N(C)C(=O)[C@@H]2CCN2C(=O)[C@H](C)N(C)C1=O ([NMeL]I[NMeA][Aze][NMeCha][Sar][hPhe(3-Cl-4-CF3)]P[Ac5c][NMeChg][NMeD]-Piperidide; lactam N-11)	0.97	140	< 2
CC[C@H](C)[C@@H]1NC(=O)[C@H](C)N(C)C(=O)C[C@@H](C(=O)n2cccc2)NC(=O)[C@H](CC2CCCCC2)N(C)C(=O)[C@H](Cc2ccccc2)N(C)C(=O)[C@H](Cc2ccccc2)NC(=O)[C@H](Cc2cccc(Cl)c2)NC(=O)CN(C)C(=O)[C@H](Cc2ccc(Cl)cc2)N(C)C(=O)CN(C)C(=O)CN(C)C1=O (cyclo(F[NMeF][NMeCha][X1][NMeA]I[Sar][Sar][NMePhe(4-Cl)][Sar][Phe(3-Cl)]))	0.07		670
CC[C@H](C)[C@@H]1NC(=O)[C@H](CC(C)C)N(C)C(=O)C[C@@H](C(=O)N2CCCCC2)N(C)C(=O)[C@H](CC2CCCCC2)N(C)C(=O)C2(CCCC2)NC(=O)[C@@H]2CCCN2C(=O)[C@H](CCc2ccc(C(F)(F)F)c(Cl)c2)NC(=O)CN(C)C(=O)[C@H](CC2CCCCC2)N(C)C(=O)[C@@H]2CCN2C(=O)[C@H](C)N(C)C1=O ([NMeL]I[NMeA][Aze][NMeCha][Sar][hPhe(3-Cl-4-CF3)]P[Ac5c][NMeCha][NMeD]-Piperidide; lactam N-11)		30000	45
CC[C@H](C)[C@@H]1NC(=O)[C@H](CC2CCC2)N(C)C(=O)C[C@@H](C(=O)N2CCCCC2)N(C)C(=O)[C@H](C(C)C)N(C)C(=O)C2(CCCC2)NC(=O)[C@@H]2CCCN2C(=O)[C@H](CCc2ccc(C(F)(F)F)c(Cl)c2)NC(=O)CN(C)C(=O)[C@H](CC2CCCCC2)N(C)C(=O)CN(C)C(=O)CN(C)C1=O ([NMeCba]I[Sar][Sar][NMeCha][Sar][hPhe(3-Cl-4-CF3)]P[Ac5c][NMeV][NMeD]-Piperidide; lactam N-11)	0.41	790	10
CCC[C@H]1C(=O)N(C)[C@H](C(=O)N2CCCCC2)CC(=O)N(C)[C@@H](CC(C)C)C(=O)N[C@@H]([C@@H](C)CC)C(=O)N(C)[C@@H](C)C(=O)N2CC[C@H]2C(=O)N(C)[C@@H](CC2CCCCC2)C(=O)N(C)CC(=O)N[C@@H](CCc2ccc(C(F)(F)F)c(Cl)c2)C(=O)N2CCC[C@H]2C(=O)NC2(CCCC2)C(=O)N1C ([NMeL]I[NMeA][Aze][NMeCha][Sar][hPhe(3-Cl-4-CF3)]P[Ac5c][NMeNva][NMeD]-Piperidide; lactam N-11)		310	5.7
CC[C@H](C)[C@@H]1NC(=O)[C@H](CC(C)C)N(C)C(=O)C[C@@H](C(=O)N2CCCCC2)N(C)C(=O)[C@H]([C@@H](C)CC)N(C)C(=O)C2(CCCC2)NC(=O)[C@@H]2CCCN2C(=O)[C@H](CCc2ccc(C(F)(F)F)c(Cl)c2)NC(=O)CN(C)C(=O)[C@H](CC2CCCCC2)N(C)C(=O)[C@@H]2CCN2C(=O)[C@H](C)N(C)C1=O ([NMeL]I[NMeA][Aze][NMeCha][Sar][hPhe(3-Cl-4-CF3)]P[Ac5c][NMeI][NMeD]-Piperidide; lactam N-11)	0.75	48	2.8
CC[C@H](C)[C@@H]1NC(=O)[C@H](C)N(C)C(=O)C[C@@H](C(=O)n2cccc2)NC(=O)[C@H](C)N(C)C(=O)[C@H](Cc2ccccc2)N(C)C(=O)[C@H](Cc2ccccc2)NC(=O)[C@H](Cc2cccc(Cl)c2)NC(=O)CN(C)C(=O)[C@H](Cc2ccc(Cl)cc2)N(C)C(=O)CN(C)C(=O)CN(C)C1=O (cyclo(F[NMeF][NMeA][X1][NMeA]I[Sar][Sar][NMePhe(4-Cl)][Sar][Phe(3-Cl)]))	0.1		> 5000
CC[C@H](C)[C@@H]1NC(=O)[C@H](CC2CCCC2)N(C)C(=O)C[C@@H](C(=O)N2CCCCC2)N(C)C(=O)[C@H](C(C)C)N(C)C(=O)C2(CCCC2)NC(=O)[C@@H]2CCCN2C(=O)[C@H](CCc2ccc(C(F)(F)F)c(Cl)c2)NC(=O)CN(C)C(=O)[C@H](CC2CCCCC2)N(C)C(=O)CN(C)C(=O)CN(C)C1=O ([NMeAla(cPent)]I[Sar][Sar][NMeCha][Sar][hPhe(3-Cl-4-CF3)]P[Ac5c][NMeV][NMeD]-Piperidide; lactam N-11)	0.41	730	13
CC[C@H](C)[C@@H]1NC(=O)[C@H](CC(C)C)N(C)C(=O)C[C@@H](C(=O)N2CCCCC2)N(C)C(=O)[C@H](C2CCC2)N(C)C(=O)C2(CCCC2)NC(=O)[C@@H]2CCCN2C(=O)[C@H](CCc2ccc(C(F)(F)F)c(Cl)c2)NC(=O)CN(C)C(=O)[C@H](CC2CCCCC2)N(C)C(=O)[C@@H]2CCN2C(=O)[C@H](C)N(C)C1=O ([NMeL]I[NMeA][Aze][NMeCha][Sar][hPhe(3-Cl-4-CF3)]P[Ac5c][NMeGly(cBu)][NMeD]-Piperidide; lactam N-11)	0.91	170	2.5
CC[C@H](C)[C@@H]1NC(=O)[C@H](CC(C)C)N(C)C(=O)C[C@@H](C(=O)N2CCCCC2)N(C)C(=O)[C@H](C)N(C)C(=O)C2(CCCC2)NC(=O)[C@@H]2CCCN2C(=O)[C@H](CCc2ccc(C(F)(F)F)c(Cl)c2)NC(=O)CN(C)C(=O)[C@H](CC2CCCCC2)N(C)C(=O)[C@@H]2CCN2C(=O)[C@H](C)N(C)C1=O ([NMeL]I[NMeA][Aze][NMeCha][Sar][hPhe(3-Cl-4-CF3)]P[Ac5c][NMeA][NMeD]-Piperidide; lactam N-11)	0.97	5200	> 1000
CC[C@H](C)[C@@H]1NC(=O)[C@H](CC(C)C)N(C)C(=O)C[C@@H](C(=O)N2CCCCC2)N(C)C(=O)[C@H](CC(C)C)N(C)C(=O)C2(CCCC2)NC(=O)[C@@H]2CCCN2C(=O)[C@H](CCc2ccc(C(F)(F)F)c(Cl)c2)NC(=O)CN(C)C(=O)[C@H](CC2CCCCC2)N(C)C(=O)[C@@H]2CCN2C(=O)[C@H](C)N(C)C1=O ([NMeL]I[NMeA][Aze][NMeCha][Sar][hPhe(3-Cl-4-CF3)]P[Ac5c][NMeL][NMeD]-Piperidide; lactam N-11)		240	3.9
CC[C@H](C)[C@@H]1NC(=O)[C@H](C)N(C)C(=O)C[C@@H](C(=O)n2cccc2)N(C)C(=O)[C@H]([C@@H](C)CC)N(C)C(=O)[C@H](Cc2ccccc2)N(C)C(=O)[C@H](Cc2ccccc2)NC(=O)[C@H](Cc2cccc(Cl)c2)NC(=O)CN(C)C(=O)[C@H](Cc2ccc(Cl)cc2)N(C)C(=O)CN(C)C(=O)CN(C)C1=O (cyclo(F[NMeF][NMeI][X2][NMeA]I[Sar][Sar][NMePhe(4-Cl)][Sar][Phe(3-Cl)]))	0.09		87
CCCC[C@H]1C(=O)N(C)[C@H](C(=O)n2cccc2)CC(=O)N(C)[C@@H](C)C(=O)N[C@@H]([C@@H](C)CC)C(=O)N(C)CC(=O)N(C)CC(=O)N(C)[C@@H](Cc2ccc(Cl)cc2)C(=O)N(C)CC(=O)N[C@@H](Cc2cccc(Cl)c2)C(=O)N[C@@H](Cc2ccccc2)C(=O)N(C)[C@@H](Cc2ccccc2)C(=O)N1C (cyclo(F[NMeF][NMeNle][X2][NMeA]I[Sar][Sar][NMePhe(4-Cl)][Sar][Phe(3-Cl)]))	0.09		270
CCC[C@H]1C(=O)N(C)[C@H](C(=O)n2cccc2)CC(=O)N(C)[C@@H](C)C(=O)N[C@@H]([C@@H](C)CC)C(=O)N(C)CC(=O)N(C)CC(=O)N(C)[C@@H](Cc2ccc(Cl)cc2)C(=O)N(C)CC(=O)N[C@@H](Cc2cccc(Cl)c2)C(=O)N[C@@H](Cc2ccccc2)C(=O)N(C)[C@@H](Cc2ccccc2)C(=O)N1C (cyclo(F[NMeF][NMeNva][X2][NMeA]I[Sar][Sar][NMePhe(4-Cl)][Sar][Phe(3-Cl)]))	0.14		97
